Laboratory results published in publication PMC10487517, “Impacts of Halogen Substitutions on Bisphenol A Compounds Interaction with Human Serum Albumin: Exploring from Spectroscopic Techniques and Computer Simulations” (International Journal of Molecular Sciences, 2023).
pKd: −log10 of the molar value.

Key:
HSA [1] = target: T1, HSA (Homo sapiens, UniProt P02768); assay: Site-specific competitive experiment (fluorescence) with site markers; type: binding; details: Ka, with Digoxigenin, [Ligands]/[Site Marker] 1:1; room temperature; n = 3
T1 construct: HSA and Tris were obtained from Sigma-Aldrich, St. Louis, MI, USA; purchased Sigma-Aldrich
T1 sequence (P02768 25-609): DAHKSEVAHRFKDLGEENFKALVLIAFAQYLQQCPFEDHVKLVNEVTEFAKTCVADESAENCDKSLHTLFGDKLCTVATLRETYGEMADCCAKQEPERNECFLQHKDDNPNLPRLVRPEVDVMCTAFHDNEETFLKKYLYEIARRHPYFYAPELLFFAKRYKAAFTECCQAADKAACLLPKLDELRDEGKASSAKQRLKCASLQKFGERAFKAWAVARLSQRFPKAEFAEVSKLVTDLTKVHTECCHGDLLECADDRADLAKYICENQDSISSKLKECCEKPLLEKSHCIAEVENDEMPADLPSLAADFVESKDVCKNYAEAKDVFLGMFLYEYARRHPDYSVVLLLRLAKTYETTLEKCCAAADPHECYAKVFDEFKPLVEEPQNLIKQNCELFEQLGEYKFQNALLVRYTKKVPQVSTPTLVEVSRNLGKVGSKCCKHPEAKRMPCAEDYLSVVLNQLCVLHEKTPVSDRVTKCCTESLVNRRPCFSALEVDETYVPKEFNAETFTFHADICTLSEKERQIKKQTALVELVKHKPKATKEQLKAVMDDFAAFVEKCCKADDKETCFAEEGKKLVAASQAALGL

HSA [2] = target: T1, HSA; assay: Fluorescence quenching / fluorescence–thermodynamic experiment with HSA; type: binding; details: for Ksv: Stern–Volmer quenching constant, Tris-HCl pH 7.4; for pKd: Ka, binding constant, double logarithmic equation; for ∆H: enthalpy change of binding; for ∆H / ∆S: from Ka at 298, 303, 310 K; for ∆S: entropy change of binding; for fluorescence quenching mechanism: from Kq and trend of Ksv with temperature; for main binding forces: from signs of ΔH and ΔS
Procedure: Prior to taking steady-state fluorescence measurements, the HSA and ligand mixture solution was given 2 min to equilibrate.
To account for the ligand concentration in the study system, which was much lower than the 10^−5 M level, the inner-filter effect of the ligand was neglected. The Stern–Volmer equation and double logarithmic equation (Equations (1)–(3)) were used to analyze the data of fluorescence spectra. Thermodynamic parameters were obtained using Equation (4) to determine the driving forces in the binding process. […] In addition, R and T are the gas constant at room temperature and the temperature in Kelvin, respectively.

HSA [3] = target: T1, HSA; assay: Site-specific competitive experiment (fluorescence) with site markers; type: binding; details: for pKd: Ka, room temperature, n = 3; for primary binding site on HSA: site-marker competition
Procedure: The site-specific competitive experiment was conducted following the methodology described in the literature, using […], ibuprofen, and phenylbutazone as site-specific probes. First, a 1:1 complex of the site-specific probe with HSA was prepared in the buffer solution. […] This experiment was conducted under the same test conditions as the thermodynamic experiment, except at room temperature.

HSA [4] = target: T1, HSA; assay: Three-dimensional fluorescence spectra of HSA with ligand; details: [HSA] = [ligand] = 1.0 × 10^−6 M; for Peak 1 ∆λ: free HSA 62; for Peak 2 ∆λ: free HSA 109; for Peak 2 λex/λem: free HSA 225/334; for Peak 1 λex/λem: free HSA 279/341; for Peak 1 F: free HSA 368.7; for Peak 2 F: free HSA 801.7; for change of Stokes shift of peak 2: versus free HSA
HSA [5] = target: T1, HSA; assay: Circular dichroism spectroscopy, HSA secondary structure (CONTINLL); details: [HSA] = [ligand] = 1.0 × 10^−6 M; for β-Sheet: free HSA 7.7; for β-Turn: free HSA 14.1; for Random Coil: free HSA 26.9; for α-Helix: free HSA 51.4
Source text: The concentration of HSA and the ligands was set as 1.0 × 10^−6 M. The instrumental parameters were set as follows: path length of 1 mm and scanning speed of 100 nm min^−1.

HSA [6] = target: T1, HSA; details: level of the Ka value; cited from earlier work
[7] = 298 K, quenching rate constant, Kq=Ksv/τ0, τ0 6.30 ns
[8] = 303 K, quenching rate constant, Kq=Ksv/τ0, τ0 6.30 ns
[9] = 310 K, quenching rate constant, Kq=Ksv/τ0, τ0 6.30 ns
[10] = compared with maximum scattering collision quenching rate constant for dynamic quenching
[11] = Control group, [Ligands]/[Site Marker] 1:0
[12] = with Ibuprofen, [Ligands]/[Site Marker] 1:1
[13] = with Phenylbutazone, [Ligands]/[Site Marker] 1:1

SMILES	pKd (HSA [1])	∆G (HSA [2]; 298 K)	Kq (HSA [2]; [7])	∆G (HSA [2]; 303 K)	Ksv (HSA [2]; 303 K)	Kq (HSA [2]; [8])	∆G (HSA [2]; 310 K)	Ksv (HSA [2]; 310 K)	Kq (HSA [2]; [9])	pKd (HSA [2]; 298 K)	pKd (HSA [2]; 303 K)	pKd (HSA [2]; 310 K)	Kq (HSA [2]; [10])	∆H (HSA [2])	∆S (HSA [2])	fluorescence quenching mechanism (HSA [2])	main binding forces (HSA [2])	pKd (HSA [3]; [11])	pKd (HSA [3]; [12])	pKd (HSA [3]; [13])	other results
CC(C)(c1cc(Br)c(O)c(Br)c1)c1cc(Br)c(O)c(Br)c1 [TBBPA, tetrabromobisphenol A]	6.13	-7.906 kcal/mol	1.210 10^14 M^−1·s^−1	-8.114 kcal/mol	7.534 10^5 M^−1	1.211 10^14 M^−1·s^−1	-8.408 kcal/mol	7.627 10^5 M^−1	1.226 10^14 M^−1·s^−1	5.80	5.86	5.93	greater than 2.0 × 10^10 M^−1·s^−1	4.587 kcal/mol	175.4 J·moL^−1·K^−1	static quenching mechanism	hydrophobic interactions	6.13	6.13	5.91	primary binding site on HSA (HSA [3]): site I; Peak 1 ∆λ (HSA [4]): 59 nm; Peak 2 ∆λ (HSA [4]): 103 nm; Peak 2 λex/λem (HSA [4]): 225/328; Peak 1 λex/λem (HSA [4]): 279/338; Peak 1 F (HSA [4]): 254.0; Peak 2 F (HSA [4]): 575.5; change of Stokes shift of peak 2 (HSA [4]): 6 nm; β-Sheet (HSA [5]): 7.3%; β-Turn (HSA [5]): 14.7%; Random Coil (HSA [5]): 29.8%; α-Helix (HSA [5]): 48.2%
CC(C)(c1cc(Cl)c(O)c(Cl)c1)c1cc(Cl)c(O)c(Cl)c1 [TCBPA, tetrachlorobisphenol A]	5.89	-7.187 kcal/mol	0.2135 10^14 M^−1·s^−1	-7.084 kcal/mol	1.296 10^5 M^−1	0.2083 10^14 M^−1·s^−1	-6.943 kcal/mol	1.289 10^5 M^−1	0.2073 10^14 M^−1·s^−1	5.31	5.04	4.92	greater than 2.0 × 10^10 M^−1·s^−1	-13.23 kcal/mol	−84.86 J·moL^−1·K^−1	mixed quenching mechanism	hydrogen bonds and van der Waals forces	5.86	5.88	5.50	primary binding site on HSA (HSA [3]): site I; Peak 1 ∆λ (HSA [4]): 61 nm; Peak 2 ∆λ (HSA [4]): 108 nm; Peak 2 λex/λem (HSA [4]): 226/334; Peak 1 λex/λem (HSA [4]): 279/340; Peak 1 F (HSA [4]): 323.4; Peak 2 F (HSA [4]): 692.6; change of Stokes shift of peak 2 (HSA [4]): 1 nm; β-Sheet (HSA [5]): 8.2%; β-Turn (HSA [5]): 14.2%; Random Coil (HSA [5]): 27.2%; α-Helix (HSA [5]): 50.4%
CC(C)(c1ccc(O)cc1)c1ccc(O)cc1 [BPA, Bisphenol A]																					Ka (HSA [6]): ~1000 M⁻¹
